Reference: patent US20230382925A1, “MODULATORS OF CYSTIC FIBROSIS TRANSMEMBRANE CONDUCTANCE REGULATOR” (VERTEX PHARMACEUTICALS INCORPORATED, priority 2020, published 2023)
Where two headings read alike, the source gives them in different places.

Molecular target: CFTR (Homo sapiens, UniProt P13569)
Assay: Membrane Potential Dye, Enteroid Assay B
Format: cell-based
How it was run: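 Activity given as % of a triple-combination reference (1 μM and 3 μM correctors, 300 nM acute potentiator). Enteroids were preincubated 18-24 h with compound; chloride efflux then measured 15 min by methyl oxonol fluorescence after forskolin/IBMX/Compound III stimulation in chloride-free buffer containing CaCCinh-A01 and Chicago Sky Blue.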

[1] = Table 10, read-out: Ent. B EC50

Sequence of CFTR (P13569 with tags, fused parts or gaps DEL508-508): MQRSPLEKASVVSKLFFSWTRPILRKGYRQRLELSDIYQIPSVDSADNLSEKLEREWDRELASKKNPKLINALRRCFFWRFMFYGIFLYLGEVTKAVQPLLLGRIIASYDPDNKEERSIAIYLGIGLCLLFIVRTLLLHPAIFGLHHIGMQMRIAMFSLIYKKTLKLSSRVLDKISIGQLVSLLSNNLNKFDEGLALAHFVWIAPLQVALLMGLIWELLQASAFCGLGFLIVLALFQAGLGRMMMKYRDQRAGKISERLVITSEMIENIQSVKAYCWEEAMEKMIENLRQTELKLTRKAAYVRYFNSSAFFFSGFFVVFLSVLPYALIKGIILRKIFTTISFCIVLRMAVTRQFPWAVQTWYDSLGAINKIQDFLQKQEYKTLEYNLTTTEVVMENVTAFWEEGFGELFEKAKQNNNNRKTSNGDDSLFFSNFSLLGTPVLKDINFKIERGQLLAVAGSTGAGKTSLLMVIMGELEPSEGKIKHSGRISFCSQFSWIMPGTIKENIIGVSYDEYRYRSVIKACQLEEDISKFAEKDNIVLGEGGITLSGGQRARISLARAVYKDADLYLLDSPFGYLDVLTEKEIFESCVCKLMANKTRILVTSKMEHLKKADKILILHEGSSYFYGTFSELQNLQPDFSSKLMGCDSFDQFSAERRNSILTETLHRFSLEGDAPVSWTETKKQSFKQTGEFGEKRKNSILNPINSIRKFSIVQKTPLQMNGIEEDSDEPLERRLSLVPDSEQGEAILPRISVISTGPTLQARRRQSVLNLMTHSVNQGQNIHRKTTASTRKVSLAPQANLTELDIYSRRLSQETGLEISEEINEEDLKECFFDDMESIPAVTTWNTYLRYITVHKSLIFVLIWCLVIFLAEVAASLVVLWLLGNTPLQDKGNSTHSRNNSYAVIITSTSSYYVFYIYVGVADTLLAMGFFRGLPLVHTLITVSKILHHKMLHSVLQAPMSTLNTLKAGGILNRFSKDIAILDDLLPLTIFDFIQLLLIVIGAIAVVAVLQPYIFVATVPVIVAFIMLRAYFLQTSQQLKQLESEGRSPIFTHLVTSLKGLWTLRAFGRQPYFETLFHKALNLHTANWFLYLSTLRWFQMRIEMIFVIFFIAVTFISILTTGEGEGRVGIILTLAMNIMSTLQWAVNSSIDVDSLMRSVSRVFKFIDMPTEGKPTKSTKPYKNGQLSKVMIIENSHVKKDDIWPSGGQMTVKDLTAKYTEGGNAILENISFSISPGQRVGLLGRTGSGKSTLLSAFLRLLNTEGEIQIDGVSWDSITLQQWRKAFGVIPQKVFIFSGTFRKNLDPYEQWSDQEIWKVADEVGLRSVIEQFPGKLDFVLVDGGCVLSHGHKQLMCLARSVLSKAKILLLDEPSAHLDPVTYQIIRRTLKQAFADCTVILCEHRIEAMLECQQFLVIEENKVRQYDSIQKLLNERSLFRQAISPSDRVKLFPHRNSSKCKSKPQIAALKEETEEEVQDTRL

| SMILES | Ent. B Max Activity (%) (Table 9) | EC50 (Table 9, read-out: Ent. B EC50) | further results |
| --- | --- | --- | --- |
| Cc1cccc(C)c1-c1cc2nc(n1)NS(=O)(=O)c1cccc(c1)C(=O)N(C1CC3(CCN(C(=O)COC(C)C)CC3)C1)[C@H](CC(C)C)CO2 [Compound 458] | +++ (+++ is >60%) | < 1000 nM |  |
| Cc1cccc(C)c1-c1cc2nc(n1)NS(=O)(=O)c1cccc(c1)C(=O)N(C1CC3(CC(NC(=O)OC(C)C)C3)C1)[C@H](CC(C)(C)C)CO2 (stereo partly drawn) [Compound 92, Isopropyl ((2S,4s,6S)-6-((R)-1^6-(2,6-dimethylphenyl)-7-neopentyl-3,3-dioxido-5-oxo-9-oxa-3-thia-2,6-diaza-1(2,4)-pyrimidina-4(1,3)-benzenacyclononaphane-6-yl)spiro[3.3]heptan-2-yl)carbamate] | +++ (+++ is >60%) | < 1000 nM |  |
| Cc1cccc(C)c1-c1cc2nc(n1)NS(=O)(=O)c1cccc(c1)C(=O)N([C@H]1C[C@@H](CC(C)(C)O)C1)[C@H](CC(C)(C)C)CO2 (single isomer, unassigned) [Compound 153] |  |  | Ent. B Max Activity (%) (Table 10): +++ (+++ is >60%); EC50 [1]: < 1000 nM |
| COC(=O)N1CCC(n2cc(N3C(=O)c4cccc(c4)S(=O)(=O)Nc4nc(cc(-c5c(C)cccc5C)n4)OC[C@H]3CC(C)(C)C)cn2)CC1 [Compound 223] |  |  | Ent. B Max Activity (%) (Table 10): + (+ is <300%); EC50 [1]: < 1000 nM |
| Cc1cccc(C)c1-c1cc2nc(n1)NS(=O)(=O)c1cccc(c1)C(=O)N(c1cn(C)nc1C)[C@H](CC(C)(C)C)CO2 [Compound 227] |  |  | Ent. B Max Activity (%) (Table 10): +++ (+++ is >60%); EC50 [1]: < 1000 nM |
| Cc1cccc(C)c1-c1cc2nc(n1)NS(=O)(=O)c1cccc(c1)C(=O)N(C1CC3(CCN(CCOCc4ccccc4)CC3)C1)[C@H](CC(C)C)CO2 [Compound 290] | +++ (+++ is >60%) | < 1000 nM |  |
| COC(=O)NC1CC2(C1)CC(N1C(=O)c3cccc(c3)S(=O)(=O)Nc3nc(cc(-c4c(C)cccc4C)n3)OC[C@H]1CC(C)(C)C(F)(F)F)C2 (single isomer, unassigned) [Compound 75] | +++ (+++ is >60%) | < 1000 nM |  |
| Cc1cccc(C)c1-c1cc2nc(n1)NS(=O)(=O)c1cccc(c1)C(=O)N(C1CC3(CC(N)C3)C1)[C@H](CC(C)(C)C)CO2 (single isomer, unassigned) [Compound 118] |  |  | Ent. B Max Activity (%): +++ (+++ is >60%); EC50 (read-out: Ent. B EC50): < 1000 nM |
| COCCN1CC2(CC(N3C(=O)c4cccc(c4)S(=O)(=O)Nc4nc(cc(-c5c(C)cccc5C)n4)OC[C@H]3CC(C)C)C2)C1 [Compound 104, (11R)-6-(2,6-Dimethylphenyl)-11-isobutyl-12-[2-(2-methoxyethyl)-2-azaspiro[3.3]heptan-6-yl]-2,2-dioxo-9-oxa-2λ^6-thia-3,5,12,19-tetrazatricyclo[12.3.1.14,8]nonadeca-1(18),4(19),5,7,14,16-hexaen-13-one] | +++ (+++ is >60%) |  |  |
| Cc1cccc(C)c1-c1cc2nc(n1)NS(=O)(=O)c1cccc(c1)C(=O)N([C@H]1CCN(C)C1)[C@H](CC(C)C)CO2 (stereo in doubt) [Compound 295] |  |  | Ent. B Max Activity (%): +++ (+++ is >60%); EC50 (read-out: Ent. B EC50): < 1000 nM |
| Cc1cccc(C)c1-c1cc2nc(n1)NS(=O)(=O)c1cccc(c1)C(=O)N(C1CC3(CCN(C(=O)CO)CC3)C1)[C@H](CC(C)C)CO2 [Compound 25, (11R)-6-(2,6-Dimethylphenyl)-12-[7-(2-hydroxyacetyl)-7-azaspiro[3.5]nonan-2-yl]-11-isobutyl-2,2-dioxo-9-oxa-2λ^6-thia-3,5,12,19-tetrazatricyclo[12.3.1.14,8]nonadeca-1(18),4(19),5,7,14,16-hexaen-13-one] | +++ (+++ is >60%) | < 1000 nM |  |
| COCCN1CCC2(CC1)CC(N1C(=O)c3cccc(c3)S(=O)(=O)Nc3nc(cc(-c4c(C)cccc4C)n3)OC[C@H]1CC(C)(C)C)C2 [Compound 138, (11R)-6-(2,6-Dimethylphenyl)-11-(2,2-dimethylpropyl)-12-[7-(2-methoxyethyl)-7-azaspiro[3.5]nonan-2-yl]-2,2-dioxo-9-oxa-2λ^6-thia-3,5,12,19-tetrazatricyclo[12.3.1.14,8]nonadeca-1(18),4(19),5,7,14,16-hexaen-13-one] |  |  | Ent. B Max Activity (%): +++ (+++ is >60%); EC50 (read-out: Ent. B EC50): < 1000 nM |
| Cc1cccc(C)c1-c1cc2nc(n1)NS(=O)(=O)c1cccc(c1)C(=O)N(C1CC3(CCN(C(=O)OC(C)(C)C)CC3)C1)[C@H](CC(C)(C)C)CO2 [Compound 437] |  |  | Ent. B Max Activity (%): ++ (++ is 30-60%); EC50 (read-out: Ent. B EC50): < 1000 nM |
| Cc1cccc(C)c1-c1cc2nc(n1)NS(=O)(=O)c1cccc(c1)C(=O)N(C1CC(NC(=O)OC(C)(C)C)C1)[C@H](CC(C)(C)C(F)(F)F)CO2 (single isomer, unassigned) [Compound 194] | +++ (+++ is >60%) | < 1000 nM |  |
| Cc1cccc(C)c1-c1cc2nc(n1)NS(=O)(=O)c1cccc(c1)C(=O)N(C1CC3(C1)CN(C(C)C)C3)[C@H](CC1(C(F)(F)F)CC1)CO2 [Compound 132, (11R)-6-(2,6-Dimethylphenyl)-12-(2-isopropyl-2-azaspiro[3.3]heptan-6-yl)-2,2-dioxo-11-[[1-(trifluoromethyl)cyclopropyl]methyl]-9-oxa-2λ^6-thia-3,5,12,19-tetrazatricyclo[12.3.1.14,8]nonadeca-1(18),4(19),5,7,14,16-hexaen-13-one] | +++ (+++ is >60%) | < 1000 nM |  |
| Cc1cccc(C)c1-c1cc2nc(n1)NS(=O)(=O)c1cccc(c1)C(=O)N(C1CC(CO)(CO)C1)[C@H](CC(C)(C)C)CO2 [Compound 158, (11R)-12-[3,3-Bis(hydroxymethyl)cyclobutyl]-6-(2,6-dimethylphenyl)-11-(2,2-dimethylpropyl)-9-oxa-2λ^6-thia-3,5,12,19-tetraazatricyclo[12.3.1.14,8]nonadeca-1(17),4(19),5,7,14(18),15-hexaene-2,2,13-trione] |  |  | Ent. B Max Activity (%) (Table 10): +++ (+++ is >60%); EC50 [1]: 1000 to 3000 nM |
| Cc1cccc(C)c1-c1cc2nc(n1)NS(=O)(=O)c1cccc(c1)C(=O)N(C1CC(OC(F)(F)F)C1)[C@H](CC(C)C)CO2 (stereo in doubt) [Compound 214] | +++ (+++ is >60%) | < 1000 nM |  |
| Cc1cccc(C)c1-c1cc2nc(n1)NS(=O)(=O)c1cccc(c1)C(=O)N([C@H]1C[C@@H](NC34CC(CO)(C3)C4)C1)[C@H](CC(C)C)CO2 (stereo in doubt) [Compound 358] |  |  | Ent. B Max Activity (%) (Table 10): +++ (+++ is >60%); EC50 [1]: < 1000 nM |
| Cc1cccc(C)c1-c1cc2nc(n1)NS(=O)(=O)c1cccc(c1)C(=O)N([C@H]1C[C@]3(C[C@H](NC(=O)OC(C)C)C3)C1)[C@H](CC1(C(F)(F)F)CC1)CO2 (stereo partly drawn) [Compound 79, Isopropyl ((2R,4r,6R)-6-((R)-1^6-(2,6-dimethylphenyl)-3,3-dioxido-5-oxo-7-((1-(trifluoromethyl)cyclopropyl)methyl)-9-oxa-3-thia-2,6-diaza-1(2,4)-pyrimidina-4(1,3)-benzenacyclononaphane-6-yl)spiro[3.3]heptan-2-yl)carbamate] |  |  | Ent. B Max Activity (%): +++ (+++ is >60%); EC50 (read-out: Ent. B EC50): < 1000 nM |
| Cc1cccc(C)c1-c1cc2nc(n1)NS(=O)(=O)c1cccc(c1)C(=O)N(C1CC3(CCN(C4CCC4)CC3)C1)[C@H](CC(C)C)CO2 [Compound 280] | +++ (+++ is >60%) | < 1000 nM |  |
| COC(=O)N1CCC2(CC1)CC(N1C(=O)c3cccc(c3)S(=O)(=O)Nc3nc(cc(-c4c(C)cccc4C)n3)OC[C@H]1CC1(C(F)(F)F)CC1)C2 [Compound 261] | +++ (+++ is >60%) | < 1000 nM |  |
| CCOCCN1CCC2(CC1)CC(N1C(=O)c3cccc(c3)S(=O)(=O)Nc3nc(cc(-c4c(C)cccc4C)n3)OC[C@H]1CC(C)C)C2 [Compound 310] |  |  | Ent. B Max Activity (%): +++ (+++ is >60%); EC50 (read-out: Ent. B EC50): < 1000 nM |
| COCCN1CC(N2C(=O)c3cccc(c3)S(=O)(=O)Nc3nc(cc(-c4c(C)cccc4C)n3)OC[C@H]2CC(C)C)CC1(C)C (stereo in doubt) [Compound 277] | +++ (+++ is >60%) | 1000 to 3000 nM |  |
| Cc1cccc(C)c1-c1cc2nc(n1)NS(=O)(=O)c1cccc(c1)C(=O)N([C@H]1C[C@@]3(C[C@H](N(C)C(=O)OC(C)C)C3)C1)[C@H](CC1(C(F)(F)F)CC1)CO2 (some centres unmarked) [Compound 272] | +++ (+++ is >60%) | < 1000 nM |  |
| Cc1cccc(C)c1-c1cc2nc(n1)NS(=O)(=O)c1cccc(c1)C(=O)N(C1CCN(C)CC1)CC(CC(C)C)CO2 (centres unmarked) [Compound 441] | +++ (+++ is >60%) | < 1000 nM |  |
| CNC1CC2(C1)CC(N1C(=O)c3cccc(c3)S(=O)(=O)Nc3nc(cc(-c4c(C)cccc4C)n3)OC[C@H]1CC(C)C)C2 (stereo in doubt) [Compound 282] | +++ (+++ is >60%) | < 1000 nM |  |
| COCCn1cc(N2C(=O)c3cccc(c3)S(=O)(=O)Nc3nc(cc(-c4c(C)cccc4C)n3)OC[C@H]2CC(C)(C)C)cn1 [Compound 225] |  |  | Ent. B Max Activity (%) (Table 10): +++ (+++ is >60%); EC50 [1]: < 1000 nM |
